From PMC6686156, “Discovery of Sustainable Drugs for Neglected Tropical Diseases: Cashew Nut Shell Liquid (CNSL)‐Based Hybrids Target Mitochondrial Function and ATP Production in Trypanosoma brucei” (Chemmedchem, 2019)

Legend:
T. congolense IL3000 WT = test: In vitro drug susceptibility assay (resazurin), T. congolense; type: cell-based; conditions: Trypanosoma congolense, bloodstream forms, read-out: EC50 T. c. IL3000 WT
Method: Organisms and culture media: Only bloodstream trypomastigotes of T. b. brucei were used throughout this study. […] Parasites were cultured in vented flasks at 37 °C and 5 % CO2 atmosphere and they were passaged every 3 days. Bloodstream forms of T. congolense savannah‐type strain IL3000 were cultured in basal MEM medium, supplemented by 10 % fresh goat serum, 14 μL of β‐mercaptoethanol, 800 μL of 200 mM glutamine solution, and 10 mL of penicillin/streptomycin solution per liter of medium (pH 7.3).48 T. congolense were cultured in six‐well plates at 34 °C and 5 % CO2.
In brief, the assays were performed in 96‐well plates with 2×10^5 cells per well for T. b. brucei or 5×10^5 cells per well for T. congolense, in their respective culture media. First, 200 μL of test compounds’ solutions (400 μM, in T. brucei or T. congolense medium as appropriate) was added to the first well of each 12‐well row, from which doubling dilutions were conducted over one row per test compound. […] Fluorescence was detected using a FLUOstar Optima (BMG Labtech, Durham, NC, USA) at wavelength of 540 nm (excitation), 590 nm (emission). EC50 values were calculated by nonlinear regression using an equation for a sigmoidal dose–response curve with variable slope using Prism 5.0 (GraphPad Software Inc., San Diego, CA, USA).

T. brucei GAPDH = T. brucei GAPDH (Trypanosoma brucei brucei, UniProt P22512); test: Inhibition of T. brucei GAPDH; type: biochemical; conditions: fixed concentration of 10 μM; data not shown; read-out: decrease of GAPDH activity
Sequence of T. brucei GAPDH (P22512 whole entry): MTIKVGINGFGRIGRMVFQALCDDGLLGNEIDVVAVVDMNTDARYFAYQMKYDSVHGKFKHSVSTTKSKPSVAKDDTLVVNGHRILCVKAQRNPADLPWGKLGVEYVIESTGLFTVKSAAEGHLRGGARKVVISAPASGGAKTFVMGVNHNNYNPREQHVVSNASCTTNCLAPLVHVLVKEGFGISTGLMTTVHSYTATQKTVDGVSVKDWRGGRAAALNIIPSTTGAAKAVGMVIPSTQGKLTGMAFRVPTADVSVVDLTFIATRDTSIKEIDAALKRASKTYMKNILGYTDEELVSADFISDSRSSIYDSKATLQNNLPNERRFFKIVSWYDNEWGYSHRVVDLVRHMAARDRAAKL
Text: […]. […] Limitations of solubility prevented us from testing the series at higher concentrations. However, it must be noted that we cannot exclude the possibility of a low‐affinity inhibition of GAPDH contributing to the trypanocidal effect, as compounds may accumulate to relatively high concentrations within the parasite.

[1] = tested on: T. b. brucei 427WT bloodstream trypomastigotes; test: Transmission electron microscopy on T. b. brucei; type: cell-based, Trypanosoma brucei brucei; conditions: 1×EC50; 4 h exposure
Method: Transmission electron microscopy assay on T. b. brucei and HFF cells: TEM of bloodstream trypomastigotes (427WT) and of HFF was performed essentially as previously described.52 Briefly, cell cultures were adjusted to 2.5×10^6 cells mL^−1 and incubated in the presence or absence of test compounds at EC50. Cells were fixed overnight at 4 °C in 2.5 % glutaraldehyde and 4 % paraformaldehyde in 0.1 M phosphate buffer (pH 7.4). Samples were washed with 0.1 M phosphate buffer (pH 7.4), post‐fixed in 1 % osmium tetroxide for 1 h on ice, and washed with the phosphate buffer. Cells were next incubated in 0.5 % uranyl acetate solution for 30 min, washed with distilled water and dehydrated in increasing concentrations of acetone (30, 50, 70, 90 and 100 %).

HFF cells = test: ATP assay on HFF cells; type: cell-based, human; conditions: 22 at 200 μM, oligomycin 2 μg/mL; 0, 4, 8 h
Method: ATP assay on T. b. brucei and HFF cells: Changes in cellular ATP levels due to the exposure of trypanosomes to the test compounds (0.5×EC50) were monitored using the Molecular Probes ATP Determination Kit (A22066, Invitrogen Detection Technologies), based on the luciferin–luciferase bioluminescent enzymatic reaction. Bloodstream trypomastigote cultures of T. brucei s427WT were incubated with and without test compound, and, at each predetermined incubation time, 10^7 cells of each sample were transferred into a microfuge tube and centrifuged at 2000×g for 10 min at 4 °C. The pellet was washed twice with 1 mL of 50 mM Tris⋅HCl (pH 7.4) containing 0.1 mM DTT, and then resuspended in 200 μL of the same buffer. […] ATP levels were quantified using the contents of the kit following the manufacturer's instructions; 90 μL of standard reaction solution was added to each well of a 96‐well plate and the background luminescence was recorded in a FLUOstar OPTIMA fluorimeter; 10 μL of each sample was then added to each well. The plate was incubated at 28 °C for 15 min and the luminescence was measured, including a standard curve with an ATP concentration ranging from 1 nM to 1 μM to allow the calculation of the ATP concentrations in each sample. The ATP content was measured at 0, 0.5, 1, 2, 4, 8 and 12 h of incubation with test sample. […]

[2] = Cytotoxicity assay on human foreskin fibroblast (HFF), resazurin; type: cell-based; conditions: human foreskin fibroblast (HFF) cells, tested up to 200 μM, read-out: HFF cytotoxic activity (EC50)
Method: Cytotoxicity assay on human foreskin fibroblast (HFF): Toxicity of test compounds to mammalian cells was carried out using the resazurin assay previously described31 with slight modifications as follows. HFF cells were grown in a culture medium containing 500 mL of Dulbecco's modified Eagle's medium (DMEM; Sigma), 50 mL newborn calf serum (NBCS; Gibco), 5 mL penicillin/streptomycin (Gibco), and 5 mL of L‐Glutamax ([…], Gibco), at 37 °C and 5 % CO2 in vented flasks and passaged at 80–85 % of confluence. For the cytotoxicity assay, cells were suspended at 3×10^5 cells mL^−1 and 100 μL aliquots were added to each well of a 96‐well plate. The plate was incubated at 37 °C and 5 % CO2 for 24 h to allow cell adhesion. Serial test compounds dilution was performed in a different 96‐well plate and 100 μL of each dilution was transferred to each well containing cells, resulting in exposure of cells to 200–0.2 μM of test compound. Phenylarsine oxide (Sigma–Aldrich) was used as positive control and drug‐free incubation as negative control. The plates were incubated at 37 °C and 5 % CO2 for an additional 30 h, at which point 10 μL of resazurin solution ([…] in PBS) was added, followed by a final incubation for 24 h. The plates were read and the data analyzed as described above for the trypanosome assay.

Row | SMILES | EC50 (T. congolense IL3000 WT) [µM] | inhibition at 10 µM (T. brucei GAPDH) [%] | ultrastructure by TEM in trypanosomes [1] | effect on cellular ATP levels of HFF cells (HFF cells) | EC50 at 54 h [2] [µM]
1 | O=C1C(Oc2cccc(CCCCCCCCO)c2)=CC(=O)c2c(O)cccc21 [Compound 22, 5‐Hydroxy‐2‐(3‐(8‐hydroxyoctyl)phenoxy)naphthalene‐1,4‐dione] | 43.4 ± 0.2 | < 15 | mitochondrial damage but no other ultrastructural changes | only a very minor effect on cellular ATP levels | > 200
2 | COc1cccc2c1C(=O)C=C(Oc1cccc(CCCCCCCCO)c1)C2=O [Compound 20, 2‐(3‐(8‐Hydroxyoctyl)phenoxy)‐5‐methoxynaphthalene‐1,4‐dione] | 18.8 ± 0.2 | < 15 | some mitochondria presented an irregular shape | – | > 200
